# Data reported in US20230390274A1 (EPIRIUM BIO INC., priority 2020, published 2023).
# Target: 15-PGDH/HPGD (Homo sapiens (Human), UniProt P15428)
# Assay: hPGDH inhibitor screening biochemical assay
# Settings: 10 nM 15-PGDH/HPGD, 15 μM PGE2, 0.25 mM NAD; read-out: hPGDH: Average IC50
# Method in brief: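 10 nM recombinant 15-PGDH was preincubated with compound (10-point) for 10 min at 37° C. in 50 mM Tris-HCl pH 7.5, 0.01% Tween 20. Then 15 μM PGE2 and 0.25 mM NAD+ were added for 10 min at rt. NADH fluorescence (ex/em 340/485 nm) gave % inhibition versus 1% DMSO and a four-parameter IC50.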
# Sequence of 15-PGDH/HPGD (P15428 whole entry): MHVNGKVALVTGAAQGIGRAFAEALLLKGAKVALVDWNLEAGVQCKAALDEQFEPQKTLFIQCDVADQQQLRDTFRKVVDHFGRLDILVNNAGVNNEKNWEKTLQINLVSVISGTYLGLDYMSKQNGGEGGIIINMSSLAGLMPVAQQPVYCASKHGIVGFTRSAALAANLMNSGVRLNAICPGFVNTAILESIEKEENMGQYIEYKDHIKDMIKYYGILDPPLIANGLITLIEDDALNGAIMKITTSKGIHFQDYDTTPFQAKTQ
row,IC50,Compound
1,< 0.1 µM,O=C(NC1(C(=O)O)CC1)c1ccc(-n2ccc3cc(C(=O)N4CCC(F)(F)CC4)cnc32)cc1 [A-233]
2,< 0.1 µM,"O=C(NC1(C(=O)O)CC1)c1ccc(-n2ccc3cc(C(=O)N4CCC(F)(F)CC4)cnc32)cn1 [A-234, 1-(5-(5-(4,4-difluoropiperidine-1-carbonyl)-1H-pyrrolo[2,3-b]pyridin-1-yl)picolinamido)cyclopropane-1-carboxylic acid]"
3,< 0.1 µM,CC(C)(CC(=O)O)NC(=O)c1ccc(-n2ccc3cc(C(=O)N4CCC(F)(F)CC4)cnc32)cc1 [A-235]
4,< 0.1 µM,O=C(O)[C@@H]1CCCN1C(=O)c1ccc(-n2ccc3cc(C(=O)N4CCC(F)(F)CC4)cnc32)cc1 [A-236]
5,< 0.1 µM,"CCC(CC)NC(=O)c1ccc(-n2ccc3cc(C(=O)N4CCC(F)(F)CC4)cnc32)cn1 [A-239, 5-(5-(4,4-difluoropiperidine-1-carbonyl)-1H-pyrrolo[2,3-b]pyridin-1-yl)-N-(pentan-3-yl) picolinamide]"
6,< 0.1 µM,"CC(C)(C)CNC(=O)c1ccc(-n2ccc3cc(C(=O)N4CCC(F)(F)CC4)cnc32)cn1 [A-240, 5-(5-(4,4-difluoropiperidine-1-carbonyl)-1H-pyrrolo[2,3-b]pyridin-1-yl)-N-neopentylpicolinamide]"
7,< 0.1 µM,"N#Cc1ccc(-n2ccc3cc(C(=O)N4CCC(F)(F)CC4)cnc32)cc1 [A-241, 4-(5-(4,4-difluoropiperidine-1-carbonyl)-1H-pyrrolo[2,3-b]pyridin-1-yl)benzonitrile]"
8,< 0.1 µM,N#Cc1ccc(-n2ccc3cc(C(=O)N4CCC(F)(F)CC4)cnc32)cc1O [A-243]
9,< 0.1 µM,"CC(C)(O)CCc1cc2cc(C(=O)N3CCC(F)(F)CC3)cnc2n1-c1ccc(C#N)cc1 [A-244, 4-(5-(4,4-difluoropiperidine-1-carbonyl)-2-(3-hydroxy-3-methylbutyl)-1H-pyrrolo[2,3-b]pyridin-1-yl)benzonitrile]"
10,< 0.1 µM,"CC(C)(C)NC(=O)c1cncc(-n2ccc3cc(C(=O)N4CCC(F)(F)CC4)cnc32)c1 [A-246, N-(tert-butyl)-5-(5-(4,4-difluoropiperidine-1-carbonyl)-1H-pyrrolo[2,3-b]pyridin-1-yl)nicotinamide]"
11,< 0.1 µM,"NC(=O)[C@@H]1CCCN1C(=O)c1ccc(-n2ccc3cc(C(=O)N4CCC(F)(F)CC4)cnc32)cc1 [A-248, (S)-1-(4-(5-(4,4-difluoropiperidine-1-carbonyl)-1H-pyrrolo[2,3-b]pyridin-1-yl)benzoyl)pyrrolidine-2-carboxamide]"
12,< 0.1 µM,O=C(c1ccc(-n2ccc3cc(C(=O)N4CCC(F)(F)CC4)cnc32)cc1)N(CCO)CCO [A-249]
13,< 0.1 µM,"O=C(c1cnc2c(ccn2-c2ccc(-c3nnn[nH]3)nc2)c1)N1CCC(F)(F)CC1 [A-250, (1-(6-(1H-tetrazol-5-yl)pyridin-3-yl)-1H-pyrrolo[2,3-b]pyridin-5-yl)(4,4-difluoropiperidin-1-yl)methanone]"
14,< 0.1 µM,"O=C(c1cnc2c(ccn2-c2cncc(-c3nnn[nH]3)c2)c1)N1CCC(F)(F)CC1 [A-251, (1-(5-(1H-tetrazol-5-yl)pyridin-3-yl)-1H-pyrrolo[2,3-b]pyridin-5-yl)(4,4-difluoropiperidin-1-yl)methanone]"
15,< 0.1 µM,"O=C(c1cnc2c(ccn2-c2cncc(-c3noc(=O)[nH]3)c2)c1)N1CCC(F)(F)CC1 [A-252, 3-(5-(5-(4,4-difluoropiperidine-1-carbonyl)-1H-pyrrolo[2,3-b]pyridin-1-yl)pyridin-3-yl)-1,2,4-oxadiazol-5(4H)-one]"
16,< 0.1 µM,O=C(c1cnc2c(ccn2-c2ccc(-c3ncn[nH]3)nc2)c1)N1CCC(F)(F)CC1 [A-253]
17,< 0.1 µM,"O=C(c1cnc2c(ccn2-c2ccc(-c3noc(=O)[nH]3)nc2)c1)N1CCC(F)(F)CC1 [A-254, 3-(5-(5-(4,4-difluoropiperidine-1-carbonyl)-1H-pyrrolo[2,3-b]pyridin-1-yl)pyridin-2-yl)-1,2,4-oxadiazol-5(4H)-one]"
18,< 0.1 µM,CC1(C)NC(=O)N(c2ccc(-n3ccc4cc(C(=O)N5CCC(F)(F)CC5)cnc43)cn2)C1=O [A-255]
